The text below walks through data of PMC6213796, “Purification and Identification of Angiotensin I-Converting Enzyme Inhibitory Peptides and the Antihypertensive Effect of Chlorella sorokiniana Protein Hydrolysates” (Nutrients, 2018).

Read-outs that look alike come from different tables or passages of the source. Residues, ends and D or L forms follow the SMILES beside them.

Test [1] has as its target T1, Rabbit lung ACE (Oryctolagus cuniculus, UniProt P12822).
T1 construct: ACE of rabbit lung, and other chemicals of analytical grade were obtained from Sigma Chemical Co; purchased Sigma Chemical Co. (St. Louis, MO, USA); host or cells: rabbit lung tissue
T1 sequence (P12822 34-1310): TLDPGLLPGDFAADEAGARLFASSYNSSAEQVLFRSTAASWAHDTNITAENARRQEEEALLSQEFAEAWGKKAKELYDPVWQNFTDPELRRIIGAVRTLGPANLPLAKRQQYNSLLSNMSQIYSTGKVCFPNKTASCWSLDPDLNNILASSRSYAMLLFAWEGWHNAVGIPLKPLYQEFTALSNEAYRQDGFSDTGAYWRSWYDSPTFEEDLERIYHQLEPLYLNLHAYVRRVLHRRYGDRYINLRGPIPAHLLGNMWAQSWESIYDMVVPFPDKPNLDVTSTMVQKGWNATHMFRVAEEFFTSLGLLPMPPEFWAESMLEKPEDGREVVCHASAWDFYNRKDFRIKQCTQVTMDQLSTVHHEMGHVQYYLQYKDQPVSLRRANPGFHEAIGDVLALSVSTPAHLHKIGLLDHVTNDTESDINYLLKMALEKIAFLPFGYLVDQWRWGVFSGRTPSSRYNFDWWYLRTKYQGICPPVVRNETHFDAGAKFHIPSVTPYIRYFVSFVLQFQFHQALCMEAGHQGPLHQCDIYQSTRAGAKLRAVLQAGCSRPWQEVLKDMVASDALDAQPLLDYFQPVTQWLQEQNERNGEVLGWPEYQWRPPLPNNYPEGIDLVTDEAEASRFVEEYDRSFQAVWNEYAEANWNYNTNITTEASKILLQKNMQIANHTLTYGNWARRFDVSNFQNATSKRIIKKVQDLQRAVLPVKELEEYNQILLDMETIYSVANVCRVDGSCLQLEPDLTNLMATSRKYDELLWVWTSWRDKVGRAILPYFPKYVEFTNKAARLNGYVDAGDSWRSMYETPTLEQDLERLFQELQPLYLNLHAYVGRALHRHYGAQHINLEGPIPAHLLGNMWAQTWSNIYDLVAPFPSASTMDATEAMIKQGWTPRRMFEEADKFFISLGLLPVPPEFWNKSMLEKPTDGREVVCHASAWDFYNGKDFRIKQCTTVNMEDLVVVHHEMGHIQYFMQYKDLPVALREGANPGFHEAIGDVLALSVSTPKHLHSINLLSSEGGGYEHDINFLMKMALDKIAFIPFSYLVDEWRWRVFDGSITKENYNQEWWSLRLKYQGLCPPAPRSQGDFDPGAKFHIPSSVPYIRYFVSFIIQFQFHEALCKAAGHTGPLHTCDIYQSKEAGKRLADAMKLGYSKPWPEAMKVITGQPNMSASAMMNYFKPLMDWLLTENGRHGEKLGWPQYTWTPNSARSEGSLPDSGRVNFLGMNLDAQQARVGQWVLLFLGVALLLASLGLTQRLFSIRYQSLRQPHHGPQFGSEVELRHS
As to the kind of experiment: In vitro assay for ACE-inhibitory activity (HHL substrate, RP-HPLC of hippuric acid). In kind it is biochemical. To be noted: for ACE Inhibitory (%): RP-HPLC peaks of fraction F of PN-1G, at peptide content 0.01-0.03 mg/mL. The procedure:
In brief, 15 mM HHL was dissolved in 100 mM Na-borate buffer (pH 8.3) supplemented with 300 mM NaCl. […] A mixture containing 75 μL of ACE solution and 75 μL of the sample with a 5000-Da MWCO membrane (Millipore, Burlington, MA, USA) was incubated at 37 °C for 10 min, to which was added 75 μL of HHL solution, and the mixture was incubated for a further 30 min. […] Finally, inhibition activity was calculated using the following formula.Inhibition activity (%) = [(Ec - Es)/(Ec - Eb)] × 100 where Ec is the absorbance with addition of the buffer instead of the test sample (control), Es is the absorbance when the sample was added to the reaction mixture (sample), and Eb is the absorbance when the stop solution was added before the reaction occurred (blank). […] All data presented in this paper are the average of three repeats or mean ± standard deviation (SD).

The test system of test [2] is ACE. To be noted: cited from earlier work.
The test system of test [3] is SHRs. To be noted: tube feeding, after 2 to 4 h, compared with captopril at the same dose; cited from earlier work.
In test [4] the target is angiotensin I-converting enzyme (ACE) of rabbit lung (rabbit) (UniProt P12822).
The target is the same in test [5]. This is another data set of the same source.
The mark [6] stands for this setting: peaks F7 to F10, converted from μM, read-out: IC50 (equivalent in mg/mL) (converted).
Where [7] appears, read: peptides of peaks F7 to F10 from PN-1G, read-out: IC50.
Setting [8] is: ACE-inhibitory peptides from pepsin hydrolysate of Porphyra yezoensis, read-out: IC50.

In the case of `CC(C)[C@H](NC(=O)[C@@H](N)Cc1c[nH]c2ccccc12)C(=O)O` [Peak F7, Trp–Val] (H-Trp-Val-OH), the “ACE Inhibitory (%)” value in test [1] is on record as 54.3%. The IC50 in test [1] (setting [6]) was 308 µM; in test [1] (setting [7]), 307.61 ± 0.01 µM.
Consider `CC(C)[C@H](N)C(=O)N[C@@H](Cc1c[nH]c2ccccc12)C(=O)O` [Peak F8, Val–Trp] (H-Val-Trp-OH), for which the IC50 is 0.593 µM in test [1] (IC50 (equivalent in mg/mL), peaks F7 to F10, converted from μM) and 0.58 ± 0.02 µM in test [1] (IC50, peptides of peaks F7 to F10 from PN-1G). In test [1], the “ACE Inhibitory (%)” value stood at 86.1%.
As to `CC[C@H](C)[C@H](N)C(=O)N[C@@H](Cc1c[nH]c2ccccc12)C(=O)O` [Peak F9, Ile–Trp], the “ACE Inhibitory (%)” value in test [1] turned out to be 95.1%. For the same compound, the IC50 in test [1] (setting [6]) was 0.504 µM; in test [1] (setting [7]), 0.5 ± 0.01 µM.
On to “Ala-Lys-Tyr-Ser-Tyr (AKYSY; printed: Ala-Lys-Tyr-Ser-Tyr)”, for which, in test [2] (setting [8]), the IC50 is 1.52 µM.
For the compound Ile-Gln-Pro, in test [2] (peptide from Alcalase hydrolysate, read-out: IC50), the IC50 was 5.77 µM. Also, the blood pressure-lowering effect result in test [3] was “same blood pressure-lowering effect as captopril”.
Ile-Trp (peptide): the ACE Inhibitory (%) of peak F9 at peptide content 0.01 mg/mL in test [4] stood at 95.1%. Moreover, the IC50 of inhibition of ACE activity (hydrolysis of HHL to hippuric acid, RP-HPLC, 37 °C, pH 8.3) in test [5] is 0.5 μM.
For Ile-Tyr, in test [2] (setting [8]), the IC50 is 2.69 µM.
Leu-Arg-Tyr: the IC50 in test [2] (setting [8]) is 5.06 µM.
In the case of Leu-Trp (peptide), the ACE Inhibitory (%) of peak F10 at peptide content 0.01 mg/mL in test [4] turned out to be 87.7%. The compound further gave an IC50 of inhibition of ACE activity (hydrolysis of HHL to hippuric acid, RP-HPLC, 37 °C, pH 8.3) in test [5] of 1.11 μM.
Turning to Met-Lys-Tyr, the IC50 in test [2] (setting [8]) is 7.26 µM.
Regarding Phe–Ala–Leu, the IC50 in test [2] (peptide from pepsin hydrolysate of C. vulgaris, read-out: IC50) was 26.3 µM.
As for Trp-Val (peptide), the ACE Inhibitory (%) of peak F7 at peptide content 0.01 mg/mL in test [4] turned out to be 54.3%. In test [5], this compound displayed an IC50 of inhibition of ACE activity (hydrolysis of HHL to hippuric acid, RP-HPLC, 37 °C, pH 8.3) of 308 μM.
As for “VRYL (UniProt P04654 220-223, looked up, fragment)”, the IC50 in test [2] (before hydrolysis with digestive enzymes) was 9 µg/mL.
Val-Trp (peptide): the ACE Inhibitory (%) of peak F8 at peptide content 0.01 mg/mL in test [4] was 86.1%. Moreover, the IC50 of inhibition of ACE activity (hydrolysis of HHL to hippuric acid, RP-HPLC, 37 °C, pH 8.3) in test [5] came out at 0.58 μM.
